These results are taken from patent publication US9040501B2, “Compositions and methods for treating cancer” (Eisai Inc., priority 2009, dated 2015).

Read-outs that look alike come from different tables or passages of the source. Bounds are passed on as bounds.

Data set [1] concerns the target CDA from human liver (Homo sapiens (Human), UniProt P32320). The conditions noted are these: Wentworth and Wolfenden 1975; cited from earlier work.
The target of data set [2] is CDA (Homo sapiens (Human), UniProt P32320). The note with it: deamination by CDA; Chabot et al. 1983, Bouffard et al. 1993; cited from earlier work.
CDA, sequence (P32320 whole entry): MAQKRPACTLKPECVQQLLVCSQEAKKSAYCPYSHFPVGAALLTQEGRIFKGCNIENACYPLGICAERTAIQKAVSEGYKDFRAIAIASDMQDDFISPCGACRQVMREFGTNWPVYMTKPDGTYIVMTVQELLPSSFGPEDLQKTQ
The subject of data set [3] is A2780 human ovarian cancer xenograft. Kind of data set: In vivo efficacy study in A2780 human ovarian cancer xenograft model. Also noted: species or system female nude mice. The note with it: qdx5 for two weeks. How it is done:
Animals were dosed daily from Monday to Friday for two weeks.
Female nude mice (NU/NU, strain code 088, 6 weeks old, Charles River Laboratory) were implanted subcutaneously with 5×10^6 A2780 cancer cells per mouse. On day 13 when the tumors were approximately 150 mm^3, treatment started as described in Table 9.
Tumor volume and regressions were followed over time. Tumor volume was calculated by (length×width^2)/2. Note that a complete regression was defined as no measurable tumor for at least 3 consecutive measurements; while a partial regression was defined as tumor shrinkage to equal or less than 50% of original tumor volume for 3 consecutive measurements. Tumor growth delay (TGD) was defined as the median number of days for the control and treatment groups to grow to 342.14 mm^3. The average tumor volume on the first day of treatment (day 13) is 171.07 mm^3.

Data set [4] addresses cytidine deaminase (CDA) (Homo sapiens (Human), UniProt P32320). Kind of data set: Effect of ER-876437 on the half-life of gemcitabine in the presence of CDA in Tris-HCl buffer at 37° C. It is filed as biochemical. Also noted: half-life: dose or concentration left out as unconfirmed. The conditions noted are these: for half-life: cytidine deaminase (CDA) in Tris-HCl buffer, read-out: Estimated T1/2 of gemcitabine; for reduction in gemcitabine concentration: gemcitabine alone, absence of CDA, Tris-HCl buffer at 37° C., 10 hours. How it is done: This Example employed a Phenomenex Luna C18(2) HPLC column (100 Å 4.6×250 mm 5 μm). The solvent delivery system employed an HPLC quaternary pump, low pressure mixing. An autosampler having a variable loop, 0.1 to 100 μL range and temperature controlled thermostat was used. The UV detector can employ a dual wavelength detector, a diode array detector, a variable wavelength detector or equivalent, and can be recorded using chromatographic software (e.g., Waters Empower 2 Build 2154, Agilent ChemStation software version A.09.03 or higher for HPLC or equivalent). The analytical balance employed was capable of weighing ±0.1 mg. Degassed HPLC grade water and degassed HPLC grade acetonitrile were used as solvents for the mobile phases.
Gemcitabine Standard Control: 0.2 mM gemcitabine control was prepared by weighing […] of gemcitabine in a 10 mL volumetric flask. […] Solution was labeled as gemcitabine stock solution.

cytidine deaminase (CDA), sequence (P32320 whole entry): as above
CDA from human liver, sequence (P32320 whole entry): as above

For `Nc1ncn([C@@H]2O[C@H](CO)[C@@H](O)[C@H]2O)c(=O)n1` [5-azacytidine, 4-Amino-1-(β-D-ribofuranosyl)-1,3,5-triazin-2(1H)-one], the Km (in general, the concentration of substrate that gives half-maximal velocity) was 58 µM in data set [1] and 216 ± 51 µM in data set [2].

`Nc1cnn([C@@H]2O[C@H](CO)[C@@H](O)[C@H]2O)c(=O)n1` [6-azacytidine]: in data set [1], the Km was 4200 µM.

`Nc1ccn([C@H]2C[C@H](O)[C@@H](CO)O2)c(=O)n1` [deoxycytidine]: the Michaelis constant (Km) in data set [2] is 19 ± 4 µM.

On to `Nc1ccn([C@@H]2O[C@H](CO)[C@@H](O)C2(F)F)c(=O)n1` [gemcitabine, 2′-deoxy-2′,2′-difluorocytidine], for which the “regressions or tumor free survivors at day 41” value in data set [3] (gemcitabine 1 mg/kg PO alone or ER-876437 10 mg/kg PO alone) is reported as “no regressions or tumor free survivors”. Also, the “effect on tumor growth (FIG. 3)” value in data set [3] (gemcitabine 1 mg/kg PO and/or ER-876437 10 mg/kg PO (30 minutes prior)) is listed as “limited efficacy”. Moreover, the “TGD (tumor growth delay)” value in data set [3] (gemcitabine 1 mg/kg PO and/or ER-876437 10 mg/kg PO (30 minutes prior), delay vs vehicle to reach 342.14 mm^3) amounted to 2 days. Besides, the Michaelis-Menten constant (Km) in data set [2] is 95.7 ± 8.4 µM. In addition, in data set [4] (Gemcitabine with CDA in Tris-HCl buffer at 37° C.), the “Estimated T1/2 of gemcitabine” value was <35 min. Further, the half-life in data set [4] (pH 7.4, Gemcitabine with CDA and ER-876437 in Tris-HCl buffer at 37° C.) is > 780 min; in data set [4] (pH 7.4, Gemcitabine with CDA in Tris-HCl buffer at 37° C.), < 35 min. Also, the “reduction in gemcitabine concentration” value in data set [4] is reported as “no reduction”; in data set [4] (listed as Gemcitabine) it was “did not show any degradation”. Besides, the concentration of gemcitabine in data set [4] (presence of CDA, within 1 hour) is recorded as ~0 % control.
